Columns and labels:
[1] = molecular target: T1, beta-catenin/TCF4 engagement (Homo sapiens, UniProt P35222); assay: Nano-BRET target engagement assay (B-cat-Halo & TCF4-Luc in HEK293 cells); assay type: cell-based; conditions: absolute IC50; read-out: NanoBRET Abs IC50
T1 construct: expressed in transfected cells; host or cells: HEK293
T1 sequence (P35222 1-781): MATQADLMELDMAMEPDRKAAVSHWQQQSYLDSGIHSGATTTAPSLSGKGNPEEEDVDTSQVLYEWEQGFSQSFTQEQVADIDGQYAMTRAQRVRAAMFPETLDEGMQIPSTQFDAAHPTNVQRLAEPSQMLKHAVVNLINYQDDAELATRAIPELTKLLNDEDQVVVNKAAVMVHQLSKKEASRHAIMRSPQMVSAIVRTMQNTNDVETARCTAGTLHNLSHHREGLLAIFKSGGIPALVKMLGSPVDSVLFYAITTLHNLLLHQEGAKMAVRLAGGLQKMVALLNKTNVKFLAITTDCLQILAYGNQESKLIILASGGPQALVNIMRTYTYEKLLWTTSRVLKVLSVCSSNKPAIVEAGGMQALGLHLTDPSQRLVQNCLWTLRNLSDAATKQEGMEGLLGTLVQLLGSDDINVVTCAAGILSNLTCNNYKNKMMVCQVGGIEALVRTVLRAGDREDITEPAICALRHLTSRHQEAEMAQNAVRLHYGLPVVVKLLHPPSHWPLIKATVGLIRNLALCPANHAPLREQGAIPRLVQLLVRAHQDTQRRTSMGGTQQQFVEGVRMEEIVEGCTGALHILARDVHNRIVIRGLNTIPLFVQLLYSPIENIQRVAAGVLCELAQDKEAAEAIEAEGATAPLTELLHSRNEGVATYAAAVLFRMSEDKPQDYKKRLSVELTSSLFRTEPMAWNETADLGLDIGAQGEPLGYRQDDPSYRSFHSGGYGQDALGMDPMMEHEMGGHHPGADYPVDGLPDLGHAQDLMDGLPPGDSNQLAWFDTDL

[2] = molecular target: T2, full-length beta-Catenin (Uniprot ID P35222) (Homo sapiens, UniProt P35222); assay: Fluorescence polarization IC50 (beta-catenin / 5FAM-TCF4 10-53 competition); assay type: binding; conditions: fluorescence polarization; read-out: beta-Catenin FP IC50
T2 construct: 10 nM full-length beta-Catenin (Uniprot ID P35222)
T2 sequence (P35222 1-781): T1 sequence (P35222 1-781)

Row | Compound | IC50 [1] | IC50 [2]
1 | CC(=O)N1CCC[C@]12CC=CCCCC1(CCCC=CCCCOC(=O)N3CC[C@@](C(=O)N[C@@H](Cc4ccccc4C#N)C(=O)N[C@@H](Cc4csc5ccccc45)C(=O)N[C@@H](CCC(N)=O)C(N)=O)(C3)NC(=O)[C@H](CC(C)C)NC(=O)[C@H](Cc3ccccc3)NC(=O)[C@H](C)NC(=O)[C@H](C)NC(=O)[C@H](CN(CC(=O)O)CC(F)(F)F)NC(=O)[C@H](CC(=O)O)NC1=O)NC(=O)[C@H](CC(C)(C)C)NC(=O)[C@H](CC(=O)O)NC2=O (stereo partly drawn) [I-1702, Ac-PL3-Asp-Npg-B5-Asp-TfeGA-Ala-Ala-Phe-Leu-PyrS2-2CNF-BztA-Gln-NH2] | 6900 nM | 17 nM
2 | CC(=O)N1CCC[C@]12CC=CCCCC1(CCCC=CCCCOC(=O)N3CC[C@@](C(=O)N[C@@H](Cc4ccccc4C(F)(F)F)C(=O)N[C@@H](Cc4csc5ccccc45)C(=O)N[C@@H](CCC(N)=O)C(N)=O)(C3)NC(=O)[C@H](CC(C)C)NC(=O)[C@H](Cc3ccccc3)NC(=O)[C@H](C)NC(=O)[C@H](C)NC(=O)[C@H](CN(CC(=O)O)CC(F)(F)F)NC(=O)[C@H](CC(=O)O)NC1=O)NC(=O)[C@H](CC(C)(C)C)NC(=O)[C@H](CC(=O)O)NC2=O (stereo partly drawn) [I-1704, Ac-PL3-Asp-Npg-B5-Asp-TfeGA-Ala-Ala-Phe-Leu-PyrS2-2F3MeF-BztA-Gln-NH2] | 5300 nM | 37 nM
3 | CC(=O)N1CCC[C@]12CC=CCCCC1(CCCC=CCCCOC(=O)N3CC[C@@](C(=O)N[C@@H](Cc4ccsc4)C(=O)N[C@@H](Cc4csc5ccccc45)C(=O)N[C@@H](CC(N)=O)C(N)=O)(C3)NC(=O)[C@H](CC(C)C)NC(=O)[C@H](Cc3ccccc3)NC(=O)[C@H](C)NC(=O)[C@H](C)NC(=O)[C@H](CN(CC(=O)O)CC(F)(F)F)NC(=O)[C@H](CC(=O)O)NC1=O)NC(=O)[C@H](CC(C)(C)C)NC(=O)[C@H](CC(=O)O)NC2=O (stereo partly drawn) [I-1705, Ac-PL3-Asp-Npg-B5-Asp-TfeGA-Ala-Ala-Phe-Leu-PyrS2-3Thi-BztA-Asn-NH2] | 2900 nM | 9 nM
4 | CC(=O)N1CCC[C@]12CC=CCCCC1(CCCC=CCCCOC(=O)N3CC[C@@](C(=O)N[C@@H](Cc4ccsc4)C(=O)N[C@@H](Cc4csc5ccccc45)C(=O)N[C@@H](Cc4ccccc4C(N)=O)C(N)=O)(C3)NC(=O)[C@H](CC(C)C)NC(=O)[C@H](Cc3ccccc3)NC(=O)[C@H](C)NC(=O)[C@H](C)NC(=O)[C@H](CN(CC(=O)O)CC(F)(F)F)NC(=O)[C@H](CC(=O)O)NC1=O)NC(=O)[C@H](CC(C)(C)C)NC(=O)[C@H](CC(=O)O)NC2=O (stereo partly drawn) [I-1707, Ac-PL3-Asp-Npg-B5-Asp-TfeGA-Ala-Ala-Phe-Leu-PyrS2-3Thi-BztA-2cbmf-NH2] | 6100 nM | 19 nM
5 | CC(=O)N1CCC[C@]12CC=CCCCC1(CCCC=CCCCOC(=O)N3CC[C@@](C(=O)N[C@@H](Cc4ccsc4)C(=O)N[C@@H](Cc4csc5ccccc45)C(=O)N[C@@H](Cc4cccc(C(N)=O)c4)C(N)=O)(C3)NC(=O)[C@H](CC(C)C)NC(=O)[C@H](Cc3ccccc3)NC(=O)[C@H](C)NC(=O)[C@H](C)NC(=O)[C@H](CN(CC(=O)O)CC(F)(F)F)NC(=O)[C@H](CC(=O)O)NC1=O)NC(=O)[C@H](CC(C)(C)C)NC(=O)[C@H](CC(=O)O)NC2=O (stereo partly drawn) [I-1708, Ac-PL3-Asp-Npg-B5-Asp-TfeGA-Ala-Ala-Phe-Leu-PyrS2-3Thi-BztA-3cbmf-NH2] | 11900 nM | 29 nM
6 | CC(=O)N1CCC[C@]12CCCCCCC1(CCCCCCCCOC(=O)N3CC[C@@](C(=O)N[C@@H](Cc4ccccc4)C(=O)N[C@@H](Cc4csc5ccccc45)C(=O)N[C@@H](CCC(N)=O)C(N)=O)(C3)NC(=O)[C@H](CC(C)C)NC(=O)[C@H](Cc3ccccc3)NC(=O)[C@H](C)NC(=O)[C@H](C)NC(=O)[C@H](CN(CC(=O)O)CC(F)(F)F)NC(=O)[C@H](CC(=O)O)NC1=O)NC(=O)[C@H](CC(C)(C)C)NC(=O)[C@H](CC(=O)O)NC2=O (stereo partly drawn) [I-1711, Ac-PL3-Asp-Npg-B5-Asp-TfeGA-Ala-Ala-Phe-Leu-PyrS2-Phe-BztA-Gln-NH2] | 33300 nM | 232 nM

Results, then the compound that gave them:

Row | IC50 [1] | IC50 [2] | Compound
7 | > 20000 nM | 498 nM | CC(=O)N1CCC[C@]12CCCCCCC1(CCCCCCCCOC(=O)N3CC[C@@](C(=O)N[C@@H](CC4CCCC4)C(=O)N[C@@H](Cc4csc5ccccc45)C(=O)N[C@@H](CCC(N)=O)C(N)=O)(C3)NC(=O)[C@H](CC(C)C)NC(=O)[C@H](Cc3ccccc3)NC(=O)[C@H](C)NC(=O)[C@H](C)NC(=O)[C@H](CN(CC(=O)O)CC(F)(F)F)NC(=O)[C@H](CC(=O)O)NC1=O)NC(=O)[C@H](CC(C)(C)C)NC(=O)[C@H](CC(=O)O)NC2=O (stereo partly drawn) [I-1713, Ac-PL3-Asp-Npg-B5-Asp-TfeGA-Ala-Ala-Phe-Leu-PyrS2-CypA-BztA-Gln-NH2]
8 | 28600 nM | 372 nM | CC(=O)N1CCC[C@]12CCCCCCC1(CCCCCCCCOC(=O)N3CC[C@@](C(=O)N[C@@H](Cc4ccccc4C(F)(F)F)C(=O)N[C@@H](Cc4csc5ccccc45)C(=O)N[C@@H](CCC(N)=O)C(N)=O)(C3)NC(=O)[C@H](CC(C)C)NC(=O)[C@H](Cc3ccccc3)NC(=O)[C@H](C)NC(=O)[C@H](C)NC(=O)[C@H](CN(CC(=O)O)CC(F)(F)F)NC(=O)[C@H](CC(=O)O)NC1=O)NC(=O)[C@H](CC(C)(C)C)NC(=O)[C@H](CC(=O)O)NC2=O (stereo partly drawn) [I-1714, Ac-PL3-Asp-Npg-B5-Asp-TfeGA-Ala-Ala-Phe-Leu-PyrS2-2F3MeF-BztA-Gln-NH2]
9 | > 20000 nM | 139 nM | CC(=O)N1CCC[C@]12CC=CCCCC1(CCCC=CCCCOC(=O)N3CC[C@@](C(=O)N[C@@H](Cc4ccccc4Cl)C(=O)N[C@@H](Cc4csc5ccccc45)C(=O)N[C@@H](CCC(N)=O)C(N)=O)(C3)NC(=O)[C@H](CC(N)=O)NC(=O)[C@H](Cc3ccccc3)NC(=O)[C@H](C)NC(=O)[C@H](C)NC(=O)[C@H](CC(=O)O)NC(=O)[C@H](CC(=O)O)NC1=O)NC(=O)[C@H](CC(C)(C)C)NC(=O)[C@H](CC(=O)S)NC2=O (stereo partly drawn) [I-1721, Ac-PL3-AspSH-Npg-B5-Asp-Asp-Ala-Ala-Phe-Asn-PyrS2-2C1F-BztA-Gln-NH2]
10 | > 20000 nM | 135 nM | CC(=O)N1CCC[C@]12CC=CCCCC1(CCCC=CCCCOC(=O)N3CC[C@@](C(=O)N[C@@H](Cc4ccccc4Cl)C(=O)N[C@@H](Cc4csc5ccccc45)C(=O)N[C@@H](CCC(N)=O)C(N)=O)(C3)NC(=O)[C@H](CC(N)=O)NC(=O)[C@H](Cc3ccccc3)NC(=O)[C@H](C)NC(=O)[C@H](C)NC(=O)[C@H](CC(=O)O)NC(=O)[C@H](CC(=O)O)NC1=O)NC(=O)[C@H](CC(C)(C)C)NC(=O)[C@H](CC(=O)S)NC2=O (stereo partly drawn) [I-1722, Ac-PL3-AspSH-Npg-B5-Asp-Asp-Ala-Ala-Phe-Asn-PyrS2-2C1F-BztA-Gln-NH2]
11 | 10000 nM | 15 nM | CC(=O)N1CCC[C@]12CC=CCCCC1(CCCC=CCCCOC(=O)N3CC[C@@](C(=O)N[C@@H](Cc4ccccc4C)C(=O)N[C@@H](Cc4csc5ccccc45)C(=O)N[C@@H](CCC(N)=O)C(N)=O)(C3)NC(=O)[C@H](CC(C)C)NC(=O)[C@H](Cc3ccccc3)NC(=O)[C@H](C)NC(=O)[C@H](C)NC(=O)[C@H](CN(CC(=O)O)CC(F)(F)F)NC(=O)[C@H](CC(=O)O)NC1=O)NC(=O)[C@H](CC(C)(C)C)NC(=O)[C@H](CC(=O)O)NC2=O (stereo partly drawn) [I-1725, Ac-PL3-Asp-Npg-B5-Asp-TfeGA-Ala-Ala-Phe-Leu-PyrS2-2MeF-BztA-Gln-NH2]
12 | > 20000 nM | 274 nM | CC(=O)N1CCC[C@]12CCCCCCC1(CCCCCCCCOC(=O)N3CC[C@@](C(=O)N[C@@H](Cc4ccccc4C)C(=O)N[C@@H](Cc4csc5ccccc45)C(=O)N[C@@H](CCC(N)=O)C(N)=O)(C3)NC(=O)[C@H](CC(C)C)NC(=O)[C@H](Cc3ccccc3)NC(=O)[C@H](C)NC(=O)[C@H](C)NC(=O)[C@H](CN(CC(=O)O)CC(F)(F)F)NC(=O)[C@H](CC(=O)O)NC1=O)NC(=O)[C@H](CC(C)(C)C)NC(=O)[C@H](CC(=O)O)NC2=O (stereo partly drawn) [I-1726, Ac-PL3-Asp-Npg-B5-Asp-TfeGA-Ala-Ala-Phe-Leu-PyrS2-2MeF-BztA-Gln-NH2]
13 | 29500 nM | 25 nM | CC(=O)N1CCC[C@]12CC=CCCCC1(CCCC=CCCCOC(=O)N3CC[C@@](C(=O)N[C@@H](Cc4ccsc4)C(=O)N[C@@H](Cc4csc5ccccc45)C(=O)N[C@@H](CCC(N)=O)C(N)=O)(C3)NC(=O)[C@H](CC(C)C)NC(=O)[C@H](Cc3ccccc3)NC(=O)[C@H](C)NC(=O)[C@H](C)NC(=O)[C@H](CNCC(=O)O)NC(=O)[C@H](CC(=O)O)NC1=O)NC(=O)[C@H](CC(C)(C)C)NC(=O)[C@H](CC(=O)O)NC2=O (stereo partly drawn) [I-1731, Ac-PL3-Asp-Npg-B5-Asp-GA-Ala-Ala-Phe-Leu-PyrS2-3Thi-BztA-Gln-NH2]
14 | > 20000 nM | 11 nM | CC(=O)N1CCC[C@]12CC=CCCCC1(CCCC=CCCCOC(=O)N3CC[C@@](C(=O)N[C@@H](Cc4ccsc4)C(=O)N[C@@H](Cc4csc5ccccc45)C(=O)N[C@@H](CCC(N)=O)C(N)=O)(C3)NC(=O)[C@H](CC(N)=O)NC(=O)[C@H](Cc3ccccc3)NC(=O)[C@H](C)NC(=O)[C@H](C)NC(=O)[C@H](CNCC(=O)O)NC(=O)[C@H](CC(=O)O)NC1=O)NC(=O)[C@H](CC(C)(C)C)NC(=O)[C@H](CC(=O)O)NC2=O (stereo partly drawn) [I-1732, Ac-PL3-Asp-Npg-B5-Asp-GA-Ala-Ala-Phe-Asn-PyrS2-3Thi-BztA-Gln-NH2]

Reference: patent US20240116985A1, “STAPLED PEPTIDES AND METHODS THEREOF” (priority 2020, published 2024)
